{"source": "patent US20250313530A1", "about": "“SMALL MOLECULE INHIBITORS OF INTERLEUKIN-4 AND USES THEREOF” (Trustees of Boston University, priority 2024, published 2025)", "key": {"Mouse plasma stability": {"assay": "Mouse plasma stability", "format": "in vitro ADME"}, "[1]": {"assay": "PAMPA membrane permeability", "format": "in vitro ADME", "conditions": "18 hours incubation", "protocol": "PVDF membranes purchased from Bioassay Systems PAMPA-096 were coated with 5 μL of 4% Phosphatidylcholine (Lecithin, MP Biomedicals 0210214780) in dodecane. […] Permeability was calculated by Pv=C×ln (1−ODA/ODE) cm/s, where ODA is the absorbance of acceptor solution minus blank, and ODE the absorbance of the equilibrium standard minus blank, and C=7.72×10^−6 using an 18-hour incubation time."}, "[2]": {"system": "IL-4 induced pSTAT-6 in THP-1 cells", "assay": "THP-1 pSTAT-6 immunofluorescence", "procedure": "IL-4 and analogs or vehicle (DMEM with 2% DMSO) were preincubated for 2 hours at 37° C. After the incubation, IL-4 or IL-4/analogs were incubated with THP-1 cells for 30 min at 37° C./5% CO2. Incubated cells were centrifuged for 5 min at 250×g. After aspirating the supernatant, cells were resuspended in 1×PBS and plated into a MatTek dish coated with Cell Tak adhesive for 30 minutes at room temperature. Cells were fixed with 4% Paraformaldehyde for 1 hour at room temperature. Cells were rinsed twice with 1×PBS and then permeabilized with 0.5% Triton-X for 1 hour at room temperature. Cells were rinsed again with 1×PBS, and blocked for an hour in superblock with 0.05% Tween-20, rinsed twice, and then incubated with anti-pSTAT-6 1:100 diluted in superblock 0.05% Tween-20 overnight at 4° C. (parafilmed to avoid evaporation). Cells were rinsed thrice with 1×PBS and then incubated with Mouse anti-rabbit IgG(H+L) Secondary Antibody-Alexa Fluor 647 for 1 hour at room temperature in the dark. […] Cells were rinsed twice with 1×PBS and left in 1 ml of 1×PBS. Confocal Imaging was done using an Olympus FV10i and images were processed using FIJI."}, "IL-4": {"target": "T1, IL-4 (Homo sapiens, UniProt P05112)", "T1 construct": "purchased Acros Biosystems IL4-H4218; host or cells: HEK-293", "T1 sequence (P05112 25-153)": "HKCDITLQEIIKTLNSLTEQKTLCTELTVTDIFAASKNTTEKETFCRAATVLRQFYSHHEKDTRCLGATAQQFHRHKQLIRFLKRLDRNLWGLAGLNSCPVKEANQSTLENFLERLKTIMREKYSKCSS", "assay": "Surface plasmon resonance binding to IL-4", "protocol": "Surface plasmon resonance was performed on a Biacore S200. Series S Sensor chips were purchased from Cytiva. The running buffer was 1×PBS pH 7.40 with 2% DMSO and 0.1% Tween-20 and the flow rate was kept at 50 μL/min. The SA chip was first activated with 120 μL of 1 M NaCl in 50 mM NaOH followed by a wash of 50% Isopropanol in 1 M NaCl and 50 mM NaOH, 200 μl of a 1 mg/ml solution of Avi-tagged IL-4 in DMSO-free buffer was used to immobilize 7073 RU on the chip surface using the BiacoreS200 software, 100 μl of 50 mM Biocytin was used to block all biotin slides on the sensor chip with manual setting. The system was then primed with running buffer for 7 minutes. […] Analog 15 was diluted in the running buffer and injected for 300 seconds cycles, in an ascending order. The dissociation phase was 600 seconds long. Sensorgram figures were created by exporting the raw data and plotting in Graphpad Prism 9.2.0^48."}, "[3]": {"assay": "Mouse hepatic microsome stability", "format": "in vitro ADME", "conditions": "mouse hepatic microsomes"}}, "data": [{"smiles": "N#Cc1c(-c2ccc(O)c(O)c2)cc(-c2ccccc2)[nH]c1=N", "note": "[Compound 15, 4-(3,4-dihydroxyphenyl)-2-imino-6-phenyl-1,2-dihydropyridine-3-carbonitrile]", "values": [{"measurement": "Mouse plasma stability (% remaining after 3 hours)", "setting": "Mouse plasma stability", "value": 94.3, "unit": "%"}, {"measurement": "Papp at 18 h, 100 μM", "setting": "[1]", "value": 12.7, "unit": "×10⁻⁶ cm/s"}, {"measurement": "STAT-6 phosphorylation by immunofluorescence", "setting": "[2]; 50 nM", "value": "reduced STAT-6 phosphorylation"}, {"measurement": "STAT-6 phosphorylation by immunofluorescence", "setting": "[2]; 500 nM", "value": "complete inhibition of phosphorylation"}, {"measurement": "kd", "setting": "IL-4; SPR kinetic binding constant", "value": "8.34 e−04 s^−1"}, {"measurement": "Kd", "setting": "IL-4; SPR steady-state affinity analysis", "value": 31.9, "unit": "nM"}, {"measurement": "kon", "setting": "IL-4; pH 7.4, read-out: ka", "value": 26200, "unit": "M⁻¹ s⁻¹"}, {"measurement": "Mouse hepatic microsome stability (% remaining after 1 hour)", "setting": "[3]", "value": 30.3, "unit": "%"}]}]}
